Laboratory results: patent US20080009418A1, “Selective Inhibitors” (Alchemia LTD., priority 2004, published 2008)

Columns and labels:
Human opioid (ORL1) = biological target: T1, Human opioid (ORL1) (Homo sapiens, UniProt P41146); assay: Radioligand binding, human opioid ORL1 membranes, FlashPlate, [125I]-Nociceptin; conditions: compound at 10 μM, [125I]-Nociceptin
T1 construct: purchased Perkin Elmer Biosignal
Procedure, shortened: (§1)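 Cloned human receptor membranes were coated onto FlashPlate wells and incubated with radioligand and compound (added from a 0.5 mM DMSO daughter plate) for 1 hour at room temperature in the dark. Scintillation counting gave percent inhibition, with DMSO defining total and reference ligand defining non-specific binding.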

Human Melanocortin (MC4) = biological target: T2, Human Melanocortin (MC4) (Homo sapiens, UniProt P32245); assay: Radioligand binding, human melanocortin MC4 membranes, FlashPlate, [125I]-NDP-αMSH; conditions: compound at 10 μM, [125I]-NDP-αMSH
T2 construct: purchased Perkin Elmer Biosignal
Procedure, shortened: as §1

Human Melanocortin (MC3) = biological target: T3, Human Melanocortin (MC3) (Homo sapiens, UniProt P41968); assay: Radioligand binding, human melanocortin MC3 membranes, FlashPlate, [125I]-NDP-αMSH; conditions: compound at 10 μM, [125I]-NDP-αMSH
T3 construct: purchased Perkin Elmer Biosignal
Procedure, shortened: as §1

Human melanocortin (MC5) = biological target: T4, Human melanocortin (MC5) (Homo sapiens, UniProt P33032); assay: Radioligand binding, human melanocortin MC5 membranes, FlashPlate, [125I]-NDP-αMSH; conditions: compound at 10 μM, [125I]-NDP-αMSH
T4 construct: purchased Perkin Elmer Biosignal
Procedure, shortened: as §1

[1] = biological target: T5, Human melanin-concentrating hormone (MCH1) (Homo sapiens, UniProt Q99705); assay: Radioligand binding, human melanin-concentrating hormone MCH1 membranes, FlashPlate, [125I]-S36057; conditions: compound at 10 μM; for A6: inhibition of radioligand binding, human melanin-concentrating hormone (MCH1): [125I]-S36057
T5 construct: purchased Perkin Elmer Biosignal
Procedure, shortened: as §1

[2] = biological target: T6, Human neuropeptide Y (NPY-Y1) (Homo sapiens, UniProt P25929); assay: Radioligand binding, human neuropeptide Y NPY-Y1 membranes, FlashPlate, [125I]-PYY; conditions: compound at 10 μM, [125I]-PYY
T6 construct: purchased Perkin Elmer Biosignal
T6 sequence (P25929 1-384): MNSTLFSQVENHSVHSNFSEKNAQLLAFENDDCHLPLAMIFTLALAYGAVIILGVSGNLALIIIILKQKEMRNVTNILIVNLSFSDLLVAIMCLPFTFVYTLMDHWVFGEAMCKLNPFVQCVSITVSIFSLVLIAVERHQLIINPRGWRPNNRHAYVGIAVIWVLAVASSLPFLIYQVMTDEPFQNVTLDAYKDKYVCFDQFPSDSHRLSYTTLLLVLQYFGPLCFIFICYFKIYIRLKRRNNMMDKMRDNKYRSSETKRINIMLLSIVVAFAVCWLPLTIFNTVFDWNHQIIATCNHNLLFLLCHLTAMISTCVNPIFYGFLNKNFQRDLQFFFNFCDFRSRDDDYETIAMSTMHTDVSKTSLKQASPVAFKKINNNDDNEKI
Procedure, shortened: as §1

Human neurokinin (NK1) = biological target: T7, Human neurokinin (NK1) (Homo sapiens, UniProt P25103); assay: Radioligand binding, human neurokinin NK1 membranes, filtration, [125I]-Substance P; conditions: compound at 10 μM, [125I]-Substance P
T7 construct: purchased Perkin Elmer Biosignal
Procedure, shortened: (§2)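 Percent inhibition of radioligand binding measured on recombinant human membranes: NK1 with [125I]-Substance P, KOP with [3H]-Diprenorphine. Incubation 1 h at room temperature, then harvest onto 0.3% PEI-soaked filters, cold Tris-HCl pH 7.4 washes and scintillation counting; non-specific binding from reference ligand wells.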

Mouse urotensin (mUR2) = biological target: T8, Mouse urotensin (mUR2) (Mus musculus, UniProt Q8VIH9); assay: Radioligand binding, mouse urotensin mUR2 membranes, FlashPlate, [125I]-Urotensin II; conditions: compound at 10 μM, [125I]-Urotensin II
T8 construct: purchased Perkin Elmer Biosignal
T8 sequence (Q8VIH9 1-385): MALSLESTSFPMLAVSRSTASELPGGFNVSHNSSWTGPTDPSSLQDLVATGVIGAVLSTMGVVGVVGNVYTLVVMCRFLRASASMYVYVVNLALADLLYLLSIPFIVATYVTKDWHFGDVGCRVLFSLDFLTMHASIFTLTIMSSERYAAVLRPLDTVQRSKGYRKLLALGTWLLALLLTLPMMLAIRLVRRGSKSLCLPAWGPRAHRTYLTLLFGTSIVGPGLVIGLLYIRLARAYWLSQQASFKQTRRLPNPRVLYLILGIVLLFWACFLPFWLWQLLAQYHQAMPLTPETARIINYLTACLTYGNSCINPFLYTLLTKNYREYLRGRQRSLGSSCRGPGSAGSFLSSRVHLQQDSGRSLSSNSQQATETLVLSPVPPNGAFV
Procedure, shortened: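 Cloned mouse urotensin (mUR2) receptor membranes from Perkin Elmer Biosignal were immobilized in FlashPlate microplates using a proprietary coating. Each well got 19.5 μl buffer, then 0.5 μl of DMSO, reference ligand, or compound. Adding 5 μl of [125I]-Urotensin II, diluted to 5× final concentration in binding buffer, started binding. Plates were sealed with TopSeal-A and incubated 1 hour at room temperature in the dark. Wells were counted for 30 seconds each on a TopCount after a 60-second delay, and percentage inhibition was calculated.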

Human μ-opioid (MOP) = biological target: T9, Human μ-opioid (MOP) (Homo sapiens, UniProt P35372); assay: Radioligand binding, human μ-opioid (MOP) membranes, FlashPlate, [3H]-Naloxone; conditions: compound at 10 μM, [3H]-Naloxone
T9 construct: purchased Perkin Elmer Biosignal
Procedure, shortened: as §1

Human κ-Opioid (KOP) = biological target: T10, Human κ-Opioid (KOP) (Homo sapiens, UniProt P41145); assay: Radioligand binding, human κ-opioid (KOP) membranes, filtration, [3H]-Diprenorphine; conditions: compound at 10 μM, [3H]-Diprenorphine
T10 construct: purchased Perkin Elmer Biosignal
Procedure, shortened: as §2

Human δ-opioid (DOP) = biological target: T11, Human δ-opioid (DOP) (Homo sapiens, UniProt P41143); assay: Radioligand binding, human δ-opioid (DOP) membranes, FlashPlate, [3H]-Bremazocine; conditions: compound at 10 μM, [3H]-Bremazocine
T11 construct: purchased Perkin Elmer Biosignal
Procedure, shortened: as §1

[3] = [125I]-S36057, human MCH1 membranes, 10 µM

T3 sequence (P41968 whole entry): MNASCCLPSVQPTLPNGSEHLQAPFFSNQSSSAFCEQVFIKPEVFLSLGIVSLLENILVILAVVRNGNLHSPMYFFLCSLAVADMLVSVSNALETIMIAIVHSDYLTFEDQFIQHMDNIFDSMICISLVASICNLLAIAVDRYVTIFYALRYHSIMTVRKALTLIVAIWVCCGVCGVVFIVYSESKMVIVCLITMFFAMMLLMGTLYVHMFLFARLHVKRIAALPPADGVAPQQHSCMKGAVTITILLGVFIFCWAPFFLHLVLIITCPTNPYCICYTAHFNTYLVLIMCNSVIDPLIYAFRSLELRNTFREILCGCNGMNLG
T2 sequence (P32245 whole entry): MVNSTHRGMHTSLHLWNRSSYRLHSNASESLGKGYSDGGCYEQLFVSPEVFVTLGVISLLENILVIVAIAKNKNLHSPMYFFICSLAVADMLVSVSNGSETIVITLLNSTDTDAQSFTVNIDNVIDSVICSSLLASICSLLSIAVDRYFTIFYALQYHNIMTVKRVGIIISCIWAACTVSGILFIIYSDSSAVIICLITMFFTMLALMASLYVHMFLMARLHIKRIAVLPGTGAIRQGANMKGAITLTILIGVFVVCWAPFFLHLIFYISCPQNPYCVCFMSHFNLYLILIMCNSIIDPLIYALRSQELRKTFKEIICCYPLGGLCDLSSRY
T1 sequence (P41146 whole entry): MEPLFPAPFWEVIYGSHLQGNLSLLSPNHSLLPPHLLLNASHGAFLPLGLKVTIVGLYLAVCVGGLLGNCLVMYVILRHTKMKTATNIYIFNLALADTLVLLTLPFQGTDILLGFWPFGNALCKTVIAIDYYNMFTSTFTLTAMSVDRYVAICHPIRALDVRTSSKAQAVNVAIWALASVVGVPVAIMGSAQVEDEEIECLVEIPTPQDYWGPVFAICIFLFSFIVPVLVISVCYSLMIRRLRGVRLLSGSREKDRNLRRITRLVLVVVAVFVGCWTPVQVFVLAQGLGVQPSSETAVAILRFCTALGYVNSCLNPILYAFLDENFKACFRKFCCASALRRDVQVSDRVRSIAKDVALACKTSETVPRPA
T11 sequence (P41143 whole entry): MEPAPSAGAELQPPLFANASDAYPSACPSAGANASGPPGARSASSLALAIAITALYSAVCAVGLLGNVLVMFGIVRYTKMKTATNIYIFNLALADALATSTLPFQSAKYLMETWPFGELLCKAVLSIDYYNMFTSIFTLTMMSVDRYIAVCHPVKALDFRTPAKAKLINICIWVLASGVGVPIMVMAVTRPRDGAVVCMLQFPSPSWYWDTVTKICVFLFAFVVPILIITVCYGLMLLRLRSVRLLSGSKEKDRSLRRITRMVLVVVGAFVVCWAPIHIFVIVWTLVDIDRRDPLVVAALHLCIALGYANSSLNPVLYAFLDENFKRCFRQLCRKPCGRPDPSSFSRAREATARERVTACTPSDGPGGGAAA
T10 sequence (P41145 whole entry): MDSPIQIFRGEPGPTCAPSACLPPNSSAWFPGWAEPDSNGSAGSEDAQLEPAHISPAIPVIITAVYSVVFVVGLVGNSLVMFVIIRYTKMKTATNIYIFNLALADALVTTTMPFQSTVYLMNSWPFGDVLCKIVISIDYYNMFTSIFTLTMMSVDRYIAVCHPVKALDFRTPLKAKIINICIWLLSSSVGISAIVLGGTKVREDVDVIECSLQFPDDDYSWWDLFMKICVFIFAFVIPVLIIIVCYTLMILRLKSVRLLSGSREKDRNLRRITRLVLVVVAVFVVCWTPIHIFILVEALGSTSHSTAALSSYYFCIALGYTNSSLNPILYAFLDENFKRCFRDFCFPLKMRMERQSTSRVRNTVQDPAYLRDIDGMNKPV
T5 sequence (Q99705 whole entry): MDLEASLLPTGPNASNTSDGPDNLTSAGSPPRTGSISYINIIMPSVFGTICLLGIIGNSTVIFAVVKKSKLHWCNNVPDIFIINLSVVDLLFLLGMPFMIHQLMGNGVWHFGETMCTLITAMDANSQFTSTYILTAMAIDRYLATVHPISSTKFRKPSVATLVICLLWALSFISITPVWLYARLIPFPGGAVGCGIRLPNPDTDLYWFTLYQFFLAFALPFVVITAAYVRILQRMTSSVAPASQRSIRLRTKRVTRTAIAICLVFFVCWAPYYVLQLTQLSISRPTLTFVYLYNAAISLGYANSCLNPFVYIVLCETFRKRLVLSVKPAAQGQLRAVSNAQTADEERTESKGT
T4 sequence (P33032 whole entry): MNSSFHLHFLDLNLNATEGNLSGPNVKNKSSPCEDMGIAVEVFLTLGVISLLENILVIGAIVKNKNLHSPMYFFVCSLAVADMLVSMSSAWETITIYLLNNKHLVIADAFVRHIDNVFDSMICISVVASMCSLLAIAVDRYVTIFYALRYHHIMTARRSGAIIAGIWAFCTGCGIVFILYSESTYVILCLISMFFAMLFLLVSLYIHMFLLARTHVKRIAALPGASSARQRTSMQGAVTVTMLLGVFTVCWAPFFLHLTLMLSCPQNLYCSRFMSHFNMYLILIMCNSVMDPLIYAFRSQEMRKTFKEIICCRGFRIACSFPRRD
T7 sequence (P25103 whole entry): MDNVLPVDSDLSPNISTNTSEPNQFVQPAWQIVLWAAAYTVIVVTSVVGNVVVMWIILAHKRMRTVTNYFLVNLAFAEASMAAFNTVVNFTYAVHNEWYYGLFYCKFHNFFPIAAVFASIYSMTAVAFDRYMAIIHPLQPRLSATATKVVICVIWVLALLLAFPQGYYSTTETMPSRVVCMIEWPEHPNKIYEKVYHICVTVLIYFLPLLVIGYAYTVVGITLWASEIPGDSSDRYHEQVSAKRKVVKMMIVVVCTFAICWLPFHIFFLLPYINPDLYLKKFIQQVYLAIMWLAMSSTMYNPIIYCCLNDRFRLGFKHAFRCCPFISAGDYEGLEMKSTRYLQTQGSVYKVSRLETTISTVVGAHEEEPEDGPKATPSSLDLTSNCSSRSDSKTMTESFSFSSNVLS
T9 sequence (P35372 whole entry): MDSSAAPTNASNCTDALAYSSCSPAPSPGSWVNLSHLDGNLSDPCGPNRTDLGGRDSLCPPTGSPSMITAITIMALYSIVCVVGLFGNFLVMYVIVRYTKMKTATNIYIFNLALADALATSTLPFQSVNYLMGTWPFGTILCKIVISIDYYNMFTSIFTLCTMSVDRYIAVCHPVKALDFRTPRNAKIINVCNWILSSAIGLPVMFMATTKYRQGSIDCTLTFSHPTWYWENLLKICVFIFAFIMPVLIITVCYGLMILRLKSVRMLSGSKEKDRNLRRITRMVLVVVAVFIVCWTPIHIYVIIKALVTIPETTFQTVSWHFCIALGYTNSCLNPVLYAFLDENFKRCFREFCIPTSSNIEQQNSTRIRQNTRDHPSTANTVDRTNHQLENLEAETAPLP

Compound	A10: inhibition of radioligand binding, human opioid (ORL1) (Human opioid (ORL1))	A4: inhibition of radioligand binding, human melanocortin (MC4) (Human Melanocortin (MC4))	A3: inhibition of radioligand binding, human melanocortin (MC3) (Human Melanocortin (MC3))	A5: inhibition of radioligand binding, human melanocortin (MC5) (Human melanocortin (MC5))	A6: inhibition of radioligand binding, human melanin-concentrating hormone (MCH1) [1]	A9: inhibition of radioligand binding, human neuropeptide Y (NPY-Y1) [2]	A8: inhibition of radioligand binding, human neurokinin (NK1) (Human neurokinin (NK1))	A11: inhibition of radioligand binding, mouse urotensin (mUR2) (Mouse urotensin (mUR2))	A7: inhibition of radioligand binding, human μ-opioid (MOP) (Human μ-opioid (MOP))	A2: inhibition of radioligand binding, human κ-opioid (KOP) (Human κ-Opioid (KOP))	A1: inhibition of radioligand binding, human δ-opioid (DOP) (Human δ-opioid (DOP))	A10: inhibition of radioligand binding (Human opioid (ORL1); human ORL1 membranes, 10 µM)	A4: inhibition of radioligand binding (Human Melanocortin (MC4); human MC4 membranes)	A3: inhibition of radioligand binding (Human Melanocortin (MC3); human MC3 membranes)	A6: inhibition of radioligand binding [1, 3]	A9: inhibition of radioligand binding ([2]; human NPY-Y1 membranes)	A8: inhibition of radioligand binding (Human neurokinin (NK1); human NK1 membranes)	A11: inhibition of radioligand binding (Mouse urotensin (mUR2); mouse mUR2 membranes)	A1: inhibition of radioligand binding (Human δ-opioid (DOP); human DOP membranes)	other results
COC1C(O)C(COCc2ccc3ccccc3c2)OC(OCc2ccc(Cl)cc2)C1NC(=O)C1CCN(C(=N)N)CC1 (stereo not shown) [compound 349]	− (“−” indicates less than 50% inhibition at 10 μM)	− (“−” indicates less than 50% inhibition at 10 μM)	− (“−” indicates less than 50% inhibition at 10 μM)	+ (“+” indicates greater than 50% inhibition at 10 μM)	− (“−” indicates less than 50% inhibition at 10 μM)	− (“−” indicates less than 50% inhibition at 10 μM)	+ (“+” indicates greater than 50% inhibition at 10 μM)	− (“−” indicates less than 50% inhibition at 10 μM)	− (“−” indicates less than 50% inhibition at 10 μM)	− (“−” indicates less than 50% inhibition at 10 μM)	− (“−” indicates less than 50% inhibition at 10 μM)									
NCCCC(=O)NC1C(OCc2ccc(Cl)cc2)OC(COCc2ccc3ccccc3c2)C(O)C1OCc1ccc2ccccc2c1 (single isomer, unassigned) [compound 495]	+ (“+” indicates greater than 50% inhibition at 10 μM)	+ (“+” indicates greater than 50% inhibition at 10 μM)	+ (“+” indicates greater than 50% inhibition at 10 μM)	+ (“+” indicates greater than 50% inhibition at 10 μM)	+ (“+” indicates greater than 50% inhibition at 10 μM)	− (“−” indicates less than 50% inhibition at 10 μM)	+ (“+” indicates greater than 50% inhibition at 10 μM)	− (“−” indicates less than 50% inhibition at 10 μM)	+ (“+” indicates greater than 50% inhibition at 10 μM)	− (“−” indicates less than 50% inhibition at 10 μM)	− (“−” indicates less than 50% inhibition at 10 μM)									
NCCC(=O)NC1C(OCc2ccc(Cl)cc2)OC(COCc2ccccc2)C(O)C1OCc1ccc(Cl)cc1 (single isomer, unassigned) [compound 474]												+ (“+” indicates greater than 50% inhibition at 10 μM)	− (“−” indicates less than 50% inhibition at 10 μM)	− (“−” indicates less than 50% inhibition at 10 μM)	− (“−” indicates less than 50% inhibition at 10 μM)	− (“−” indicates less than 50% inhibition at 10 μM)	+ (“+” indicates greater than 50% inhibition at 10 μM)	− (“−” indicates less than 50% inhibition at 10 μM)	− (“−” indicates less than 50% inhibition at 10 μM)	A5: inhibition of radioligand binding (Human melanocortin (MC5); human MC5 membranes, 10 µM): − (“−” indicates less than 50% inhibition at 10 μM); A7: inhibition of radioligand binding (Human μ-opioid (MOP); human MOP membranes, 10 µM): − (“−” indicates less than 50% inhibition at 10 μM); A2: inhibition of radioligand binding (Human κ-Opioid (KOP); human KOP membranes): − (“−” indicates less than 50% inhibition at 10 μM)
COCC1OC(OCc2ccc(Cl)cc2)C(NC(=O)CCNC(=N)N)C(OCc2ccc3ccccc3c2)C1O (stereo not shown) [compound 211]																				A10: inhibition of radioligand binding (Human opioid (ORL1); FlashPlate): − (“−” indicates less than 50% inhibition at 10 μM); A4: inhibition of radioligand binding (Human Melanocortin (MC4); FlashPlate): + (“+” indicates greater than 50% inhibition at 10 μM); A3: inhibition of radioligand binding (Human Melanocortin (MC3); FlashPlate): − (“−” indicates less than 50% inhibition at 10 μM); A5: inhibition of radioligand binding (Human melanocortin (MC5); FlashPlate): + (“+” indicates greater than 50% inhibition at 10 μM); A6: inhibition of radioligand binding ([1]; [125I]-S36057, FlashPlate): + (“+” indicates greater than 50% inhibition at 10 μM); A9: inhibition of radioligand binding ([2]; FlashPlate): − (“−” indicates less than 50% inhibition at 10 μM); A8: inhibition of radioligand binding (Human neurokinin (NK1); filtration): + (“+” indicates greater than 50% inhibition at 10 μM); A11: inhibition of radioligand binding (Mouse urotensin (mUR2); FlashPlate): − (“−” indicates less than 50% inhibition at 10 μM); A7: inhibition of radioligand binding (Human μ-opioid (MOP); FlashPlate): + (“+” indicates greater than 50% inhibition at 10 μM); A2: inhibition of radioligand binding (Human κ-Opioid (KOP); filtration): + (“+” indicates greater than 50% inhibition at 10 μM); A1: inhibition of radioligand binding (Human δ-opioid (DOP); FlashPlate): − (“−” indicates less than 50% inhibition at 10 μM)
NCCCC(=O)NC1C(OCc2ccc3ccccc3c2)OC(COCc2ccc(Cl)cc2)C(O)C1OCc1ccc2ccccc2c1 (single isomer, unassigned) [compound 463]												− (“−” indicates less than 50% inhibition at 10 μM)	+ (“+” indicates greater than 50% inhibition at 10 μM)	+ (“+” indicates greater than 50% inhibition at 10 μM)	+ (“+” indicates greater than 50% inhibition at 10 μM)	− (“−” indicates less than 50% inhibition at 10 μM)	+ (“+” indicates greater than 50% inhibition at 10 μM)	− (“−” indicates less than 50% inhibition at 10 μM)	− (“−” indicates less than 50% inhibition at 10 μM)	A5: inhibition of radioligand binding (Human melanocortin (MC5); human MC5 membranes): + (“+” indicates greater than 50% inhibition at 10 μM); A7: inhibition of radioligand binding (Human μ-opioid (MOP); human MOP membranes): − (“−” indicates less than 50% inhibition at 10 μM); A2: inhibition of radioligand binding (Human κ-Opioid (KOP); human KOP membranes, 10 µM): + (“+” indicates greater than 50% inhibition at 10 μM)
